Converted amounts (≈) assume the structure as drawn. “Also recorded” adds a separate entry of the source. Starred links: 1 amine or outer side, 2 acyl side, 3 side chain; linkers in the order of their positions; H or OH if unused. Positions of bridges follow the written chain, without caps; N, C: chain ends. Non-standard residues stand in square brackets, D forms with d. Residues, ends and D or L forms follow the SMILES beside them. Chains are numbered I, II in the order given. Actinocin(9to1) = Cc1c2oc3c(C)ccc(C(=O)[*:1])c3nc-2c(C(=O)[*:2])c(N)c1=O; NMeV = CN[C@H](C(=O)O)C(C)C; Sar = CNCC(=O)O
Experiments:
[1] = system: fungi; settings: cited from earlier work
[2] = toxicity / LD 50 in mice; settings: mouse, in vivo
[3] = system: bacteria; settings: cited from earlier work
[4] = system: Bacillus subtilis; settings: 28° C., 12 hours
Description: All plates were incubated at 10° C. for 30 minutes, and then transferred to an incubator at 28° C. for 12 hours. Zones of inhibition were obtained from each plate, and Rf values were calculated.

[5] = system: human breast carcinoma MX-1; assay: MX-1 human breast tumor in nude mice; settings: intraperitoneal; for effect on MX-1 tumors (in words): 0.5 mg/kg escalating to 5 mg/kg (parents) or 20 mg/kg (JAI-); for deaths / survival of MX-1 mice (in words): 3 animals per group
Description: Nude mice were grafted with transplantable human breast carcinoma MX-1, which was allowed to grow until the tumors were very large. The mice were then treated with clinically compatible dosage schedules of the compounds. All doses were administered intraperitoneally.
A control group (3 animals in the group), grafted with MX-1 tumor, which was allowed to grow to large tumors. Then, the mice were injected with distilled water and their tumors were measured simultaneously with the experimental treated animals.
1. […] The starting dose of mitomycin C was 0.5 mg/kg. escalating up to 5 mg/kg to all mice in the group. […] (3 animals per group).
2. […] The starting dose was 0.5 mg/kg escalating to 20 mg/kg. […] (3 animals per group).
3. […] The starting dose was 0.5 mg/kg escalating to 5 mg/kg. (3 animals per group).
4. […] The starting dose was 0.5 mg/kg escalating to 20mg/kg doses. (3 animals per group).

[6] = system: P. marneffei; assay: in vitro MIC against P. marneffei, tube double dilution; type: cell-based, Penicillium marneffei; settings: Talaromyces marneffei, standard tube double dilution, read-out: minimum inhibitory concentration (MIC)
[7] = oral absorption; type: in vivo
[8] = system: Candida albicans; assay: survival of mice challenged with Candida albicans; type: in vivo, Swiss albino mice; settings: for survival rate: 21-day study period, clotrimazole types 7.5 mg/kg, nystatin types 50 mg/kg; for survival rate after extended treatment: treatment extended two more weeks, 28 days post-inoculation
[9] = system: Mycobacterium avicum Complex (MAC); settings: cited from earlier work
[10] = system: M. leprae; assay: in vitro culture of M. leprae, growth inhibition; type: cell-based

With `CC1(C)S[C@@H]2[C@H](NC(=O)Cc3ccccc3)C(=O)N2[C@H]1C(=O)O` [sodium penicillin G] the solubility in acetone (acetone) was “insoluble in acetone”, the “solubility in methanol, alcohol, other solvents” value (methanol, alcohols, ethyl acetate, other solvents) was “soluble in water, alcohol and some solvents” and the solubility in water was “soluble in water”. For the same compound, the “antifungal activity (stated as known)” value [1] was “no antifungal activity”.
In the case of `Cc1c2oc3c(C)ccc(C(=O)N[C@@H]4C(=O)N[C@H](C(C)C)C(=O)N5CCC[C@H]5C(=O)N(C)CC(=O)N(C)[C@@H](C(C)C)C(=O)O[C@@H]4C)c3nc-2c(C(=O)N[C@@H]2C(=O)N[C@H](C(C)C)C(=O)N3CCC[C@H]3C(=O)N(C)CC(=O)N(C)[C@@H](C(C)C)C(=O)O[C@@H]2C)c(N)c1=O` [dactinomycin] (I: T[dV]P[Sar][NMeV] / II: T[dV]P[Sar][NMeV]; ester I:1-I:C, II:1-II:C; linker I:N-II:N via Actinocin(9to1)), the LD50 [2] is reported as 0.5 to 5 mg/kg.
For hamycin, the “antibacterial activity (stated as known)” value [3] is listed as “no antibacterial activity” and the “zone of inhibition, B. subtilis seeded plate” value [4] is listed as “no zone spot”.
With bleomycin the “effect on MX-1 tumors (in words)” value [5] was “some initial slowing in tumor growth, but then had no response” and the “effect on MX-1 tumors (in words)” value ([5]; listed as Bleomycin) was “some initial slowing of tumor growth, but then there was no response”.
For `C[C@@H]1[C@H](O)[C@@H](C)/C=C/C=C/C=C/C=C/C=C/C=C/C=C/[C@H](O[C@@H]2O[C@H](C)[C@@H](O)[C@H](N)[C@@H]2O)C[C@@H]2O[C@](O)(C[C@@H](O)C[C@@H](O)[C@H](O)CC[C@@H](O)C[C@@H](O)CC(=O)O[C@H]1C)C[C@H](O)[C@H]2C(=O)O` [amphotericin B], the MIC [6] was 0.195 to 1.56 µg/mL (≈ 0.211 to 1.69 µM) and the oral absorption [7] was “poorly absorbed orally”.
In the case of `CO[C@@]12[C@H](COC(N)=O)C3=C(C(=O)C(C)=C(N)C3=O)N1C[C@@H]1N[C@@H]12` [Mitomycin C], the “effect on MX-1 tumors (in words)” value ([5]; listed as Mitomycin-C) is reported as “the tumors regressed”, the “effect on MX-1 tumors (in words)” value ([5]; listed as mitomycin-C) is reported as “eliminated the human MX-1 breast tumors” and the “deaths / survival of MX-1 mice (in words)” value ([5]; listed as Mitomycin-C) is reported as “died”. The “deaths / survival of MX-1 mice (in words)” value ([5]; listed as mitomycin-C) was “All animals died in a two month time span; also recorded: all animals in this treatment group died from hepatotoxicity”.
In the case of `Clc1ccc(COC(Cn2ccnc2)c2ccc(Cl)cc2Cl)c(Cl)c1` (stereo not drawn) [miconazole], the MIC [6] is reported as 0.195 µg/mL (≈ 0.469 µM).
Work on `CC(=O)N1CCN(c2ccc(OCC3COC(Cn4ccnc4)(c4ccc(Cl)cc4Cl)O3)cc2)CC1` (stereo not drawn) [ketoconazole] yielded an MIC [6] of 0.195 to 0.39 µg/mL (≈ 0.367 to 0.734 µM).
With `C[C@@H]1[C@H](O)[C@@H](C)/C=C/C=C/CC/C=C/C=C/C=C/C=C/C(O[C@H]2O[C@H](C)[C@@H](O)[C@H](N)[C@@H]2O)CC2O[C@](O)(CC(O)C(O)CCC(O)CC(O)CC(O)CC(=O)O[C@H]1C)CC(O)C2C(=O)O` (stereo partly drawn) [nystatin] the survival rate [8] was 75% and the “survival rate after extended treatment” value [8] was 75%.
With `Clc1ccccc1C(c1ccccc1)(c1ccccc1)n1ccnc1` [Clotrimazole] the solubility in water was “insoluble in water”, the survival rate [8] was 62.5% and the “survival rate after extended treatment” value [8] was “zero”.
In the case of `Nc1nc(=O)[nH]cc1F` [5-FC, 5-fluorocytosine], the MIC [6] is reported as 0.195 to 0.78 µg/mL (≈ 1.51 to 6.04 µM).
For `NCC[C@H](O)C(=O)N[C@@H]1C[C@H](N)[C@@H](O[C@H]2O[C@H](CN)[C@@H](O)[C@H](O)[C@H]2O)[C@H](O)[C@H]1O[C@H]1O[C@H](CO)[C@@H](O)[C@H](N)[C@H]1O` [amikacin], the “activity against MAC (earlier studies)” value [9] is listed as “high in vitro and in vyvn activity”, the inhibition at 100 µg/mL ([10]; Mycobacterium leprae, 100 mcg/ml, read-out: growth inhibition against M. leprae) is listed as 63% and the M. leprae killed ([10]; concentration not given) is listed as 63%. The “effect of combination with dapsone on M. leprae” value ([10]; in combination with dapsone) was “did not show any additive effects”.

Source: patent US6015808A, “Synthesis of pharmaceutical compositions with lactams and β-lactams/oxo thia azabicyclo compounds” (priority 1995, dated 2000)
